{
  "source": "patent US9783556B2",
  "about": "“Kinase inhibitors” (RESPIVERT LIMITED, priority 2012, dated 2017)",
  "key": {"[1]": {"target": "p38 MAPKα isoform (MAPK14) (Homo sapiens (Human), UniProt Q16539)", "sequence (Q16539 whole entry, canonical isoform)": "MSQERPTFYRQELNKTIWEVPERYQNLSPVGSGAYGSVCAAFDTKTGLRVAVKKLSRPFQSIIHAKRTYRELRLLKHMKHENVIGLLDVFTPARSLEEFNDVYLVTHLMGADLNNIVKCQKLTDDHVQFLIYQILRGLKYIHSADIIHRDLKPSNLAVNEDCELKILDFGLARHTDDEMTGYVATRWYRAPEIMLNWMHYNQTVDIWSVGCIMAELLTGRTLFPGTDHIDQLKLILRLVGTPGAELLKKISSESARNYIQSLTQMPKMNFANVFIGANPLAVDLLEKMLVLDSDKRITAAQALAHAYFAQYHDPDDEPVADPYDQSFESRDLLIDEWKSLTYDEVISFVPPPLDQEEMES", "experiment": "p38 MAPKα enzyme inhibition (Z-LYTE FRET)", "format": "biochemical", "procedure": "(§1) The enzyme inhibitory activities of compounds disclosed herein are determined by FRET using synthetic peptides labelled with both donor and acceptor fluorophores (Z-LYTE, Invitrogen Ltd., Paisley, UK).\nThe following two assay variants can be used for determination of p38 MAPKα inhibition.\nThe inhibitory activities of test compounds against the p38 MAPKα isoform (MAPK14: Invitrogen), are evaluated indirectly by determining the level of activation/phosphorylation of the down-stream molecule, MAPKAP-K2. The p38 MAPKα protein (80 ng/mL, 2.5 μL) is mixed with the test compound (2.5 μL of either 4 μg/mL, 0.4 μg/mL, 0.04 μg/mL or 0.004 μg/mL) for 2 hr at RT. […] The mixture is incubated for 1 hr at RT. Development reagent (protease, 5 μL) is added for 1 hr prior to detection in a fluorescence microplate reader (Varioskan® Flash, ThermoFisher Scientific).\nThis method follows the same steps as Method 1 above, but utilises a higher concentration of the p38 MAPKα protein (2.5 μL of 200 ng/mL protein instead of 2.5 μL of 80 ng/mL protein) for mixing with the test compound.\n(§2) In all cases, the site-specific protease cleaves non-phosphorylated peptide only and eliminates the FRET signal. Phosphorylation levels of each reaction are calculated using the ratio of coumarin emission (donor) over fluorescein emission (acceptor), for which high ratios indicate high phosphorylation and low ratios indicate low phosphorylation levels. The percentage inhibition of each reaction is calculated relative to non-inhibited control and the 50% inhibitory concentration (IC50 value) is then calculated from the concentration-response curve."}, "c-Src": {"target": "c-Src (Homo sapiens (Human), UniProt P12931)", "sequence (P12931 whole entry, looked up)": "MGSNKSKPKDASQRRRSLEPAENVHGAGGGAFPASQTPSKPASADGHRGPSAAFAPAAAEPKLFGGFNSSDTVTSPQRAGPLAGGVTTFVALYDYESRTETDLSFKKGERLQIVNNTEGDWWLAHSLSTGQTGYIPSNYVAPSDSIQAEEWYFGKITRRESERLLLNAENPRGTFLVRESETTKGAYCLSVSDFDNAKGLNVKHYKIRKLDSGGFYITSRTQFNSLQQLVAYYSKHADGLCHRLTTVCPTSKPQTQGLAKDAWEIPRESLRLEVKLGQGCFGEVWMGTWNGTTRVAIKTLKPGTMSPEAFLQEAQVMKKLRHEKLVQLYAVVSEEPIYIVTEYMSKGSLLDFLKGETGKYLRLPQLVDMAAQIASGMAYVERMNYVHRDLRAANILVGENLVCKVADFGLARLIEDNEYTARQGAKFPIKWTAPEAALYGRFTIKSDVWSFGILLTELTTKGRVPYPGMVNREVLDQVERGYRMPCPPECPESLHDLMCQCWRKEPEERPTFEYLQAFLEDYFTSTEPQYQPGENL", "experiment": "c-Src enzyme inhibition (Z-LYTE FRET)", "format": "biochemical", "procedure": "as §1\n(§3) The inhibitory activities of compounds of the invention against c-Src and Syk enzymes (Invitrogen), are evaluated in a similar fashion to that described hereinabove. The relevant enzyme (3000 ng/mL or 2000 ng/mL respectively, 2.5 μL) is incubated with the test compound (either 4 μg/mL, 0.4 μg/mL, 0.04 μg/mL, or 0.004 μg/mL, 2.5 μL each) for 2 hr at RT. The FRET peptides (8 μM, 2.5 μL), and appropriate ATP solutions (2.5 μL, 800 μM for c-Src, and 60 μM ATP for Syk) are then added to the enzymes/compound mixtures and incubated for 1 hr. Development reagent (protease, 5 μL) is added for 1 hr prior to detection in a fluorescence microplate reader (Varioskan® Flash, ThermoFisher Scientific).\nas §2"}, "Syk": {"target": "Syk (Homo sapiens (Human), UniProt P43405)", "experiment": "Syk enzyme inhibition (Z-LYTE FRET)", "format": "biochemical", "procedure": "as §1, §3, §2"}, "GSK 3α": {"target": "GSK 3α (Homo sapiens (Human), UniProt P49840)", "sequence (P49840 whole entry, canonical isoform)": "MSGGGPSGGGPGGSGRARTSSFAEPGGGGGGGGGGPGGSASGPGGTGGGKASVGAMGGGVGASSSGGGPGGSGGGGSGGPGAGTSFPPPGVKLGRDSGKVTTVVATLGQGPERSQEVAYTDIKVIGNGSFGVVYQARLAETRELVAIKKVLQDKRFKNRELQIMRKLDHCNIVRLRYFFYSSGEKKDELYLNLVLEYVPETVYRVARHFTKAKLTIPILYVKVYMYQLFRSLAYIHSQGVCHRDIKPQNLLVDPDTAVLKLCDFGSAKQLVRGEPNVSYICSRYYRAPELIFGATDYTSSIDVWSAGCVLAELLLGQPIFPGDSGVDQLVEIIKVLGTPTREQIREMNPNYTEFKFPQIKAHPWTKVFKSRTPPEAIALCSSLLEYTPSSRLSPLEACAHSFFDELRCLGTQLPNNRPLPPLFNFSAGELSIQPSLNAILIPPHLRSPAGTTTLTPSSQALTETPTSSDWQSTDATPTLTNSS", "experiment": "GSK 3α enzyme inhibition (Z-LYTE FRET)", "format": "biochemical", "conditions": "read-out: IC50 Values for Enzyme Inhibition GSK3α", "procedure": "as §1\nThe following two assay variants can be used for determination of GSK 3α inhibition.\nThe inhibitory activities of compounds of the invention against the GSK 3α enzyme isoform (Invitrogen), are evaluated by determining the level of activation/phosphorylation of the target peptide. The GSK3-α protein (500 ng/mL, 2.5 μL) is mixed with the test compound (2.5 μL at either 4 μg/mL, 0.4 μg/mL, 0.04 μg/mL, or 0.004 μg/mL) for 2 hr at RT. The FRET peptide (8 μM, 2.5 μL), which is a phosphorylation target for GSK3α, and ATP (40 μM, 2.5 μL) are then added to the enzyme/compound mixture and the resulting mixture incubated for 1 hr. Development reagent (protease, 5 μL) is added for 1 hr prior to detection in a fluorescence microplate reader (Varioskan® Flash, ThermoFisher Scientific).\nas §2\nThis method follows the same steps as Method 1 above, but utilises a shorter period of mixing of the test compound (105 minutes instead of 2 hours) with the GSK3-α protein."}, "PBMCs [2]": {"system": "PBMCs", "experiment": "LPS-induced TNFα/IL-8 release in PBMC cells", "format": "cell-based", "conditions": "Homo sapiens, LPS-stimulated PBMCs, IL-8, read-out: IC50 Values for Inhibition of Cytokine Release PBMCs IL-8", "procedure": "Peripheral blood mononuclear cells (PBMCs) from healthy subjects are separated from whole blood using a density gradient (Lymphoprep, Axis-Shield Healthcare). The PBMCs are seeded in 96 well plates and treated with compounds at the desired concentration for 2 hours before addition of 1 ng/mL LPS (Escherichia Coli 0111:B4 from Sigma Aldrich) for 24 hours under normal tissue culture conditions (37° C., 5% CO2). The supernatant is harvested for determination of IL-8 and TNFα concentrations by sandwich ELISA (Duo-set, R&D systems) and read on the fluorescence microplate reader (Varioskan® Flash, ThermoFisher Scientific). The concentration at 50% inhibition (IC50) of IL-8 and TNFα production is calculated from the dose response curve."}, "PBMCs [3]": {"system": "PBMCs", "experiment": "IL-2 and IFN gamma release in CD3/CD28 stimulated PBMC cells", "format": "cell-based", "conditions": "Homo sapiens", "procedure": "PBMCs from healthy subjects are separated from whole blood using a density gradient (Lymphoprep, Axis-Shield Healthcare). Cells are added to a 96 well plate pre-coated with a mixture of CD3/CD38 monoclonal antibodies (0.3 μg/mL eBioscience and 3 μg/mL BD Pharmingen respectively). Compound at the desired concentration is then added to the wells and the plate left for 3 days under normal tissue culture conditions. Supernatants are harvested and IL-2 and IFN gamma release determined by Sandwich ELISA (Duo-set, R&D System). The IC50 is determined from the dose response curve."}, "HT29 cells": {"system": "HT29 cells", "experiment": "IL-1β-induced IL-8 release in HT29 cells", "format": "cell-based", "conditions": "Homo sapiens, HT-29, IL-1β-stimulated HT29 cells, read-out: IC50 Values for Inhibition of Cytokine Release HT29 cells IL-8", "procedure": "HT29 cells, a human colon adenocarcinoma cell line, are plated in a 96 well plate (24 hrs) and pre-treated with compounds at the desired concentration for 2 hours before addition of 5 ng/mL of IL-1β (Abcam) for 24 hours. Supernatants are harvested for IL-8 quantification by Sandwich ELISA (Duo-set, R&D System). The IC50 is determined from the dose response curve."}, "[4]": {"system": "TNBS-induced colitis in mice", "experiment": "TNBS-induced colitis in mice", "format": "in vivo", "procedure": "On Day 0 of the study TNBS (200 μL) is administered intra-colonically via a plastic catheter followed by BID dosing of the vehicle, reference or test compound for 2 or 4 days. During the study animals are weighed every day and stool observations are made and recorded as a score, based on stool consistency. At the time of sacrifice on Day 2 (or Day 4) the large intestine is removed and the length and weight recorded. Sections of the colon are taken for either MPO analysis to determine neutrophil infiltration or for histopathology involving scoring to determine disease severity."}, "[5]": {"conditions": "TNBS mice, conducted over 2 days"}},
  "data": [
    {"smiles": "COCCOCCOCCOc1cc(Nc2nccc(Oc3ccc(NC(=O)Nc4cc([Si](C)(C)C)nn4-c4ccc(C)cc4)c4ccccc34)n2)cc(OC)c1", "note": "[Example 21, 1-(4-((2-((3-Methoxy-5-(2-(2-(2-methoxyethoxyl)ethoxy)ethoxy)phenyl)amino)pyrimidin-4-yl)oxy)naphthalen-1-yl)-3-(1-(p-tolyl)-3-(trimethylsilyl)-1H-pyrazol-5-yl)urea]", "values": [
      {"measurement": "IC50", "setting": "[1]", "result": 204, "unit": "nM"},
      {"measurement": "IC50", "setting": "c-Src", "result": 17, "unit": "nM"},
      {"measurement": "IC50", "setting": "Syk", "result": 89, "unit": "nM"},
      {"measurement": "IC50", "setting": "GSK 3α", "result": 11.6, "unit": "µM"},
      {"measurement": "IC50", "setting": "PBMCs [2]", "result": 2, "unit": "nM"},
      {"measurement": "IC50", "setting": "PBMCs [3]; IFNγ, read-out: IC50 Values for Inhibition of Cytokine Release PBMCs IFNγ", "result": 2, "unit": "nM"},
      {"measurement": "IC50", "setting": "PBMCs [3]; IL-2, read-out: IC50 Values for Inhibition of Cytokine Release PBMCs IL-2", "result": 137, "unit": "nM"},
      {"measurement": "IC50", "setting": "HT29 cells", "result": 2, "unit": "nM"},
      {"measurement": "Ulcer grade", "setting": "[4]; TNBS mice, 1 mg/kg oral BID, 2 days, vehicle 3.7 ± 0.3, non-diseased 0 ± 0", "result": "3.3 ± 0.5"},
      {"measurement": "LP inflammation", "setting": "[4]; TNBS mice, 1 mg/kg oral BID, 2 days, vehicle 4.1 ± 0.2, non-diseased 0.3 ± 0.2", "result": "3.8 ± 0.3"},
      {"measurement": "Ulcer grade", "setting": "[4]; TNBS mice, 5 mg/kg oral BID, 2 days, vehicle 3.7 ± 0.3, non-diseased 0 ± 0", "result": "3.2 ± 0.4"},
      {"measurement": "LP inflammation", "setting": "[4]; TNBS mice, 5 mg/kg oral BID, 2 days, vehicle 4.1 ± 0.2, non-diseased 0.3 ± 0.2", "result": "2.7 ± 0.3"},
      {"measurement": "activity in in vivo model of colonic inflammation (histopathology analysis)", "setting": "[4]; [5]", "result": "significant activity"},
      {"measurement": "inflammatory cell infiltrate in the reticular and laminar propria zone", "setting": "[4]; [5]", "result": "marked reduction"},
      {"measurement": "ulcer grade and epithelial repair compared to the vehicle control", "setting": "[4]; dosed orally at 5 mg/kg", "result": "marked improvements"}
    ]},
    {"smiles": "Nc1ccc(O)c(C(=O)O)c1", "note": "[Example 5-ASA, 5-aminosalicylic acid, reference compound]", "values": [
      {"measurement": "Ulcer grade", "setting": "[4]; TNBS mice, reference item, dose not given, vehicle 3.7 ± 0.3", "result": "3.0 ± 0.5"},
      {"measurement": "LP inflammation", "setting": "[4]; TNBS mice, reference item, dose not given, vehicle 4.1 ± 0.2", "result": "2.3 ± 0.3"}
    ]}
  ]
}
